# Assay results as given in ChEMBL document CHEMBL1201862, “PubChem BioAssay data set” (2004).
# Calls of active or inactive are those of the source.
# Columns and labels:
# [1] = target: T1, SUMO-activating enzyme (Homo sapiens, UniProt Q9UBT2); experiment: blockers of SAE1/SAE2–UBC9 SUMO transfer – biochemical, HTRF, uHTS, primary screen (AID 2006); assay type: protein-complex assay
# [2] = target: Aryl hydrocarbon receptor (Homo sapiens, UniProt P35869); experiment: Luminescence-based cell-based high throughput dose response assay for activators of the Aryl Hydrocarbon Receptor (AHR). [Related pubchem assays: 2796 (Primary screen (AHR activators in singlicate)), 2845 (Confirmation screen (AHR activators in triplicate)), 434939 (Counterscreen (PXR activators in triplicate)), 2804 (Summary (AHR activators))]; assay type: ADME
# [3] = target: T1, SUMO-activating enzyme; experiment: blockers of UBC9-mediated SUMO conjugation – biochemical, AlphaScreen, SUMOylation inhibitor project, confirmation (AID 2018); assay type: functional
# [4] = target: T2, Rac GTPase-activating protein 1 (Homo sapiens, UniProt Q9H0H5); experiment: blockers of MgcRacGAP-driven Rac1 GTP hydrolysis – biochemical, ADP Hunter fluorescence, primary and confirmatory, confirmation (AID 624330); assay type: functional
# T2 sequence (Q9H0H5 whole entry): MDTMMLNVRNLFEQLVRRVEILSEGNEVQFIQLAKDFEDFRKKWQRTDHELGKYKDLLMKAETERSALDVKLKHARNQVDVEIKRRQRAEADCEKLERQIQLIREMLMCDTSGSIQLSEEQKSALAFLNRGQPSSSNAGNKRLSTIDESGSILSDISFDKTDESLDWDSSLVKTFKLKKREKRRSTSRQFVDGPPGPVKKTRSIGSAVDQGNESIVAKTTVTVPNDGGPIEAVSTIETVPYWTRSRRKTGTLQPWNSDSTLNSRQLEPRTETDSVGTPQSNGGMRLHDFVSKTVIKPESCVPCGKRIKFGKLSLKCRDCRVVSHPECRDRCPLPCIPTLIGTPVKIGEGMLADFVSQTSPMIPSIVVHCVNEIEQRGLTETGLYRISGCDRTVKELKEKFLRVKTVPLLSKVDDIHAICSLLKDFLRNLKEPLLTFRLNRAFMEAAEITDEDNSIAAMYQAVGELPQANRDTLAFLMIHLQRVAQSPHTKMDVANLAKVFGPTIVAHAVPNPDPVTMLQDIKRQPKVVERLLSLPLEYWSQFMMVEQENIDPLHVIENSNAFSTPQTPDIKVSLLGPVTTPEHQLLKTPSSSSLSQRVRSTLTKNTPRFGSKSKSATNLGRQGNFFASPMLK
# [5] = target: Luciferin 4-monooxygenase (Photinus pyralis, UniProt P08659); experiment: Counter Screen for Luciferase-based Assay Positives. [Related pubchem assays: 620, 618, 411 ]
# [6] = Late stage counterscreen results from the probe development effort to identify activators of signal transducer and activator of transcription 1 (STAT1): luminescence-based cell-based dose response assay to identify cytotoxic compounds.; assay type: functional
# [7] = system: HT-1080; experiment: HT1080 cell viability loss – fluorescence readout (AID 620); assay type: functional, cell-based; settings: Homo sapiens
# [8] = target: Troponin, cardiac muscle (Homo sapiens, UniProt P19429+P45379+P63316); experiment: Fluorescence-based biochemical high throughput dose response assay for activators of the calcium sensitivity of cardiac Regulated Thin Filaments (RTF). [Related pubchem assays (depositor defined):AID493008, AID493018, AID504382, AID504383]; assay type: protein-complex assay
# [9] = target: Protein-tyrosine kinase 2-beta (Homo sapiens, UniProt Q14289);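 note: potency of inhibitors of PYK2 kinase phosphorylation of poly-GT substrate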
# [10] = target: T3, Estrogen receptor beta (Homo sapiens, UniProt Q92731); experiment: blockers of SRC-3 recruitment to ERβ – biochemical, ELISA, streptavidin-HRP readout, orthogonal assay, confirmation (AID 1060)
# [11] = target: T3, Estrogen receptor beta
# [12] = target: T4, Estrogen receptor (Homo sapiens, UniProt P03372);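 note: potency for inhibiting coactivator peptide recruitment to the receptor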
# T4 sequence (P03372 whole entry): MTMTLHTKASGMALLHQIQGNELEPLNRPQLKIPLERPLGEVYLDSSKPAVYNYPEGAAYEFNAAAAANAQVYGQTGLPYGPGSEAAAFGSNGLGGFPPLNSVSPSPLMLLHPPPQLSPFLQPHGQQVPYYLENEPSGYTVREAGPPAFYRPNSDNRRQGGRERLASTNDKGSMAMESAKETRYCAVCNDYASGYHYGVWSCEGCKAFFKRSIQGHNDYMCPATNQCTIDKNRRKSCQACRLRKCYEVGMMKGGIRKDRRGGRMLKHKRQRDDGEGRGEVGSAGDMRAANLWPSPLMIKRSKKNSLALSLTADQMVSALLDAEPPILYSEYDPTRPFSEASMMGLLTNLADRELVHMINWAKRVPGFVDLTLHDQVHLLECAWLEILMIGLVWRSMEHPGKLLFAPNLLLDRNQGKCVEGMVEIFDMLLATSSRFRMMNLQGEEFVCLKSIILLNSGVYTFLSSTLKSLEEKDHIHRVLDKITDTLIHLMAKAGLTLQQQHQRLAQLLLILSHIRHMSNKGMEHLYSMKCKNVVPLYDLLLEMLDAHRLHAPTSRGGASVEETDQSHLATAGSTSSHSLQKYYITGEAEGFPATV
# [13] = reduction of Shn3 3'UTR-driven luciferase in osteoblasts – cell-based, Clone20 osteoblasts, firefly luciferase, cherry-picked, dose response (AID 624132); assay type: functional;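 note: firefly luciferase luminescence from reporter carrying the Shn3 3'UTR in osteoblasts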
# [14] = target: Potassium voltage-gated channel subfamily KQT member 2 (Rattus norvegicus, UniProt O88943, W236L); experiment: potentiation of rat KCNQ2 current – cell-based, automated electrophysiology, mechanism study for KCNQ2 potentiator project, dose response (AID 2603); assay type: functional
# [15] = target: T5, Replicative DNA helicase DnaB (Mycobacterium tuberculosis, UniProt P9WMR3); experiment: DnaB intein splicing inhibitors, dose response, biochemical, cell-free fluorescence (AID 449749); assay type: functional
# T5 sequence (P9WMR3 whole entry): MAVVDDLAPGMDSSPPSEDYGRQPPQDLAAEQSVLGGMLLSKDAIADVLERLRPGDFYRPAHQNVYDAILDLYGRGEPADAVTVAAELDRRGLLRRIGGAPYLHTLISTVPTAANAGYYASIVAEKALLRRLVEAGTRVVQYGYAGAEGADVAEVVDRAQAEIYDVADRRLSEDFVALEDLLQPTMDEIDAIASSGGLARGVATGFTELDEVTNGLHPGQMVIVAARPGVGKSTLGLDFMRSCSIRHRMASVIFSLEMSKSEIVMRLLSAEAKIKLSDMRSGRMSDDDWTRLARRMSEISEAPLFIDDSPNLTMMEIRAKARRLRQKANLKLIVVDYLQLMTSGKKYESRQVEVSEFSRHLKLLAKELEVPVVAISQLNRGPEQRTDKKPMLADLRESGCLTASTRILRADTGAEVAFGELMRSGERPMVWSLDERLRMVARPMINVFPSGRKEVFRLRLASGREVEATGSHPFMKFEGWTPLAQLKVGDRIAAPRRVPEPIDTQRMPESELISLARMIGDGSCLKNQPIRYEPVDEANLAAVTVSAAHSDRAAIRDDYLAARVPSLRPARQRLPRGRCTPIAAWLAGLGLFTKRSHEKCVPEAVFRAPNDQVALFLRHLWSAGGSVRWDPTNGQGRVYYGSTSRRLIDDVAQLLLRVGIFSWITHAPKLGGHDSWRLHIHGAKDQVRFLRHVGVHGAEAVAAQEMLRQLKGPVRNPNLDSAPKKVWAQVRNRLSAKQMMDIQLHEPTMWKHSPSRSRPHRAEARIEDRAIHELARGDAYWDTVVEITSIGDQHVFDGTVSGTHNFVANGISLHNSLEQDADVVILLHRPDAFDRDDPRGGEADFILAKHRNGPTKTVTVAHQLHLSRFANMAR
# [16] = target: Hepatocyte nuclear factor 4-alpha (Homo sapiens, UniProt P41235); assay type: functional, cell-based;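 note: biochemical luminescence-based dose-response counterscreen measuring inhibition of HNF4 dimerization, run alongside a screen for blockers of ABHD5–perilipin-5 interaction; split luciferase complementation of HNF4 fusion proteins in cell lysate measuring dimerization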
# [17] = target: T6, Protein RecA (Mycobacterium tuberculosis, UniProt P9WHJ3); experiment: Fluorescence Cell-Free Homogeneous Dose Retest to Identify Inhibitors of RecA-Intein Splicing Activity. [Related pubchem assays (depositor defined):AID2097, AID2223, AID489010, AID492950]; assay type: functional
# T6 sequence (P9WHJ3 whole entry): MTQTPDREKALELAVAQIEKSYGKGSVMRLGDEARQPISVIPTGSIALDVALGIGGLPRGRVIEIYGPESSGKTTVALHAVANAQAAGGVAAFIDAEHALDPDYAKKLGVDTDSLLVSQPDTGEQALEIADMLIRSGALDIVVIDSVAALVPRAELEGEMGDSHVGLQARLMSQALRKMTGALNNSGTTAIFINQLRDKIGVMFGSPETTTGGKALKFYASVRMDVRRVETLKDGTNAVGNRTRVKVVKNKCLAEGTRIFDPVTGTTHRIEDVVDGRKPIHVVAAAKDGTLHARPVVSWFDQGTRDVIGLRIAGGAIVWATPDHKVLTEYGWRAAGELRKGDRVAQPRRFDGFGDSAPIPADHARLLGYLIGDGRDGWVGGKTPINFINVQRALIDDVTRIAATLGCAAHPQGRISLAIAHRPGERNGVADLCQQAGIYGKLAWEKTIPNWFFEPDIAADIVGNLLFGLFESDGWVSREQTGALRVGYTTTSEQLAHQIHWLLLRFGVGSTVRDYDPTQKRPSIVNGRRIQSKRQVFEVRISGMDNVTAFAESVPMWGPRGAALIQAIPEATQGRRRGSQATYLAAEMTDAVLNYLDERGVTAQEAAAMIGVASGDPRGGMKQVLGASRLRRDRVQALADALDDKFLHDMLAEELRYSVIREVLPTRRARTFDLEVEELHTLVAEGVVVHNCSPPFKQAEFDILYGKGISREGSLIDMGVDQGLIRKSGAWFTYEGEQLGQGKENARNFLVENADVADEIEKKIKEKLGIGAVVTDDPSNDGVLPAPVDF
# [18] = target: Genome polyprotein (dengue virus type 2, UniProt P29990); experiment: flavivirus cap methylation enzyme inhibition – biochemical, confirmation dose response, primary screen (AID 588689); assay type: functional
# [19] = Shn3 3'UTR reporter signal decrease – cell-based, Clone20 osteoblasts, firefly luciferase, cherry-pick, set 2, Schnurri-3 inhibitor project, dose response (AID 720490); assay type: functional;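 note: actives lower the luminescence signal as inhibitors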
# [20] = target: Transitional endoplasmic reticulum ATPase (Homo sapiens, UniProt P55072); experiment: Luminescence dose response biochemical high throughput screening assay for inhibitors of the p97 ATPase: synthesized compounds. [Related pubchem assays: 1481, 1517 ]
# [21] = target: Transitional endoplasmic reticulum ATPase (Homo sapiens, UniProt P55072, C522A); experiment: Luminescence counterscreen assay for p97 inhibitors: dose response biochemical high throughput screening assay to identify inhibitors of the C522A mutant p97 ATPase: synthesized compounds. [Related pubchem assays: 1481, 1517, 1551 ]
# [22] = M. tuberculosis H37Rv growth inhibitors, H37Rv strain (AID 1626); assay type: functional
# [23] = target: T7, Calpain-2 catalytic subunit (Sus scrofa, UniProt P43367); experiment: m-calpain protease blockers, concentration series – biochemical, fluorogenic peptide substrate, dose response (AID 1420); assay type: functional
# T7 sequence (P43367 whole entry): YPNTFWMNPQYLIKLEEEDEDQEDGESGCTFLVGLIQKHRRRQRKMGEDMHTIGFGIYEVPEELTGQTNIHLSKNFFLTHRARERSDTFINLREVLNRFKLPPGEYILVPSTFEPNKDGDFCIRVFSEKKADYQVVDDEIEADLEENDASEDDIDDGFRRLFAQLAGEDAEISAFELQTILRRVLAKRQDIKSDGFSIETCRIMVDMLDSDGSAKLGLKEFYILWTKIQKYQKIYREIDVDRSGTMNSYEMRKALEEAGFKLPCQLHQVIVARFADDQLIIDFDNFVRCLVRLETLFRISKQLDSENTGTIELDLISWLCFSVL
# [24] = target: Voltage-gated inwardly rectifying potassium channel KCNH2 (Homo sapiens, UniProt Q12809); experiment: concentration-dependent hERG rescue from blockers – cell-based, thallium flux, dose response (AID 2121); assay type: ADME
# [25] = target: 5-hydroxytryptamine receptor 1A (Homo sapiens, UniProt P08908); assay type: functional
smiles,measurement,setting,value
O=c1[nH]/c(=N\c2ccc(Br)cc2)sc2ccc([N+](=O)[O-])cc12,IC50,[1],15.9 µM (active)
same,EC50,[2],5.11 µM (active)
same,IC50,[3],34.6 µM (active)
N#C/C(=C\c1ccc(N2CCOCC2)o1)c1nc2ccccc2[nH]1,IC50,[4],12.2 µM (active)
same,EC50,[5],> 100 µM (not active)
same,IC50,[6],> 55.7 µM (not active)
same,EC50,[7],> 50 µM (not active)
same,EC50,[8],0.5 µM (active)
CC(=O)c1ccc(NCC(=O)N2CCN(c3ccccc3)CC2)cc1,IC50,[9],> 69.5 µM (not active)
same,IC50,[10],37.1 µM (not active)
same,IC50,[11],2.64 µM (active)
same,IC50,[12],5.02 µM (active)
CCSc1nnc(NC(=O)c2nc(S(=O)(=O)Cc3ccc(F)cc3)ncc2Cl)s1,AC50,[13],4.96 µM (active)
same,EC50,[14],38.9 µM (active)
same,AC50,[15],0.419 µM (inconclusive)
same,IC50,[16],5.51 µM (active)
same,EC50,[17],1.08 µM (inconclusive)
same,IC50,[18],41.5 µM (active)
same,AC50,[19],1.68 µM (active)
N#Cc1ccc(Nc2nc(-c3cccc(Br)c3)cs2)cc1,IC50,[20],> 50 µM (not active)
same,IC50,[21],> 50 µM (not active)
Cn1cc(CN2CCN(c3ccc(Cl)cn3)CC2)c(-c2ccccc2F)n1,IC50,[22],> 100 µM (active)
S=c1[nH]nc(CSc2nc3ccccc3s2)n1C1CCCCC1,IC50,[23],14.3 µM (not active)
same,EC50,[24],9.55 µM (active)
C1=C(c2c[nH]c3ccccc23)CCNC1,EC50,[25],> 50 µM (not active)
